The values below come from patent US11564913B2, “Compositions and methods for treating cancer” (Children's Hospital Medical Center, priority 2019, dated 2023).

The assay has as its system pPAK1(T423)/pPAK2(T402) in MDA-MB-231 cells. Description: pPAK immunoblot. The settings on record: 1 μM, 30 min. The assay is classed as cell-based, human. The protocol:
FIG. 5: Cytoskeletal changes induced by IODVA1 treatment. IODVA1 inhibits lamellipodia and circular dorsal ruffle (CDR) formation in MDA-MB-231 cells and decreases Rac activation. (A) IODVA1 inhibits EGF-induced lamellipodia formation in MDA-MB-231 cells. MDA-MB-231 cells were plated on fibronectin-coated coverslips, serum starved for 4 h, incubated with the indicated concentrations of IODVA1 for 1 h, then EGF (50 ng/mL) stimulated, fixed and stained with Phalloidin Alexa Fluor 594 (F-Actin, pseudocolored red) and DAPI (nuclei, pseudocolored blue). […] The percentage of cells with CDRs was counted as the number of cells with CDRs normalized to the total number of cells in the field. Around 150 cells were counted per condition per experiment. Cells with multiple CDRs were counted only once. […] Levels of active Rac (RacGTP, % of control), active Cdc42 (Cdc42GTP, % of control) and active RhoA (RhoAGTP, % of control) were quantified using ImageJ and ImageLab and show combined data as mean±s.e.m. from at least 3 independent experiments. […]
To confirm that IODVA1 interferes with Rac activation, applicants checked the levels of active Rac and its downstream effector PAK1/2. MDA-MB-231 cells were incubated with IODVA1 (0-3 μM) for 1 h and levels of GTP-bound active Rac were measured by GST-PAK-GBD pull-downs and quantified (FIG. 5C). […]

For `OC1(c2ccccn2)N=C(Nc2nc3ccccc3[nH]2)N=C1c1ccccn1` (stereo not shown) [IODVA1, (Z)-2-((1H-benzo[d]imidazol-2-yl)imino)-4,5-di(pyridin-2-yl)-2,5-dihydro-1H-imidazol-5-ol], the “decrease in levels of pPAK1/2 (T423/T402)” value was 50%.
